Patent US5668152A, “Protein kinase C inhibitors” (priority 1995, dated 1997)
pIC50: −log10 of the molar value. Like-named read-outs stand apart in the source and are kept apart here.

How the values were obtained:
[1] = target: T1, protein kinase C epsilon (Homo sapiens, UniProt Q02156); test: PKC Enzyme assay, epsilon isozyme; format: biochemical
T1 sequence (Q02156 1-737): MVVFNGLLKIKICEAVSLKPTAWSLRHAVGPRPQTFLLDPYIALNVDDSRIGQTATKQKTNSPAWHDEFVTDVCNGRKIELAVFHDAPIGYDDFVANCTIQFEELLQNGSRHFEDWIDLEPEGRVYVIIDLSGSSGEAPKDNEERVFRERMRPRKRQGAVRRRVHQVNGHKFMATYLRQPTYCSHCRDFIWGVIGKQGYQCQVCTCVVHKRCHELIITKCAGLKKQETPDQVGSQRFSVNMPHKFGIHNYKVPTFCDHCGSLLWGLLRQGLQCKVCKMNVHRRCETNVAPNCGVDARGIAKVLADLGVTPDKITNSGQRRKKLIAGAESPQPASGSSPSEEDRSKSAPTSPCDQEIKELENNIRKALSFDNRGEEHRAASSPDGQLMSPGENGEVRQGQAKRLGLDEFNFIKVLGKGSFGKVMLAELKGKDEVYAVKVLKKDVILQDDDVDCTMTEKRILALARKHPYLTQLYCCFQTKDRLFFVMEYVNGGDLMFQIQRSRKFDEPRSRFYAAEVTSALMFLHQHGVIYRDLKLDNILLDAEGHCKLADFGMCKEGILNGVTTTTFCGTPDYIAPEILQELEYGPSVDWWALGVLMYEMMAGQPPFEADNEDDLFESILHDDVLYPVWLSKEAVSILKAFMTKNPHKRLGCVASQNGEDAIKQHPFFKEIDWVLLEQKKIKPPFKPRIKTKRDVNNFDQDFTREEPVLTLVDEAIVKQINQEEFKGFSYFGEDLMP
Experimental: (§1) PKC enzymes=alpha, beta I, beta II, gamma, delta, epsilon, eta and zeta.
(§2) Assay components in a total volume of 250 μL are the following:
(§3) Vesicles consisting of 120 μg/mL phosphatidylserine (Avanti Polar Lipids) and sufficient diacylglycerol (Avanti Polar Lipids) to activate the enzyme to maximum activity in 20 mM HEPES buffer (Sigma, St. Louis, Mo.), pH 7.5, 940 μM calcium chloride (Sigma, St. Louis, Mo.) for assaying the alpha, beta I, beta II and gamma enzyme only, 1 mM EGTA for all the enzymes, 10 mM magnesium chloride (Sigma, St. Louis, Mo.) and 30 μM (gamma-32P) ATP (DuPont). For all the enzymes either histone type HL (Worthington) or myelin basic protein is used as substrate. The assay is started by addition of protein kinase C enzyme incubated at 30° C. for 10 minutes and stopped by adding 0.5 mL of cold trichloroacetic acid (Amresco) followed by 100 μL of 1 mg/mL bovine serum albumin (Sigma, St. Louis, Mo.). The precipitate is collected by vacuum filtration on glass fiber filters employing a TOMTEC™ filtration system and quantified by counting in a beta scintillation counter.

[2] = target: protein kinase C beta-2 (Homo sapiens, UniProt P05771); test: PKC Enzyme assay, beta II isozyme; format: biochemical
Experimental: as §1, §2, §3

[3] = target: protein kinase C eta (Homo sapiens, UniProt P24723); test: PKC Enzyme assay, eta isozyme; format: biochemical
Experimental: as §1, §2, §3

[4] = target: protein kinase C gamma (Homo sapiens, UniProt P05129); test: PKC Enzyme assay, gamma isozyme; format: biochemical
Experimental: as §1, §2, §3

[5] = target: protein kinase C beta-1 (Homo sapiens, UniProt P05771); test: PKC Enzyme assay, beta I isozyme; format: biochemical
Experimental: as §1, §2, §3

[6] = target: protein kinase C delta (Homo sapiens, UniProt Q05655); test: biochemical
Experimental: as §1, §2, §3

[7] = target: T2, protein kinase C zeta (Homo sapiens, UniProt Q05513); test: PKC Enzyme assay, zeta isozyme; format: biochemical
T2 sequence (Q05513 1-592): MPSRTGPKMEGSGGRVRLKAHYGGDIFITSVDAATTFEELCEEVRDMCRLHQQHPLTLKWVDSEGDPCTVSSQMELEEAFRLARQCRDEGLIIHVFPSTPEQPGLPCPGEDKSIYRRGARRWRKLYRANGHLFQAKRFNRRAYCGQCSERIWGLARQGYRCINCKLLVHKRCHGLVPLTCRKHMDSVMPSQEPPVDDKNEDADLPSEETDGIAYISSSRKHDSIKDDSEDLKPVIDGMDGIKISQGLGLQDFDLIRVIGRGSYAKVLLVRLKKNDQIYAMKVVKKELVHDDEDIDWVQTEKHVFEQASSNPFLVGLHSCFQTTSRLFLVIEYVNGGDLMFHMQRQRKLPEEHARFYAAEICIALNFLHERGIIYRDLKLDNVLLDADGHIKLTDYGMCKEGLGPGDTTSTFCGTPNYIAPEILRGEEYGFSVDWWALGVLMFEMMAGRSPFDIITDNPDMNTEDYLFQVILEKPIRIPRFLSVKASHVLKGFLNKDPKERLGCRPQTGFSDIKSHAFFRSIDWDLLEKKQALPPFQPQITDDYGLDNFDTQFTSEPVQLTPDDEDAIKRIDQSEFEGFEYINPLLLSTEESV
Experimental: as §1, §2, §3

[8] = target: protein kinase C alpha (Homo sapiens, UniProt P17252); test: PKC Enzyme assay, alpha isozyme; format: biochemical
Experimental: as §1, §2, §3

[9] = PKC beta-2, 30 μM ATP, 30° C., 10 minutes, read-out: IC50 β2
[10] = PKC eta, 30 μM ATP, 30° C., 10 minutes, read-out: IC50 η
[11] = PKC epsilon, 30 μM ATP, 30° C., 10 minutes, read-out: IC50 ε
[12] = PKC gamma, 30 μM ATP, 30° C., 10 minutes, read-out: IC50 γ
[13] = PKC beta-1, 30 μM ATP, 30° C., 10 minutes, read-out: IC50 β1
[14] = PKC delta, 30 μM ATP, 30° C., 10 minutes, read-out: IC50 δ
[15] = PKC zeta, 30 μM ATP, 30° C., 10 minutes, read-out: IC50 ζ
[16] = PKC alpha, 30 μM ATP, 30° C., 10 minutes, read-out: IC50 α

Chain of protein kinase C beta-1 (P05771 whole entry): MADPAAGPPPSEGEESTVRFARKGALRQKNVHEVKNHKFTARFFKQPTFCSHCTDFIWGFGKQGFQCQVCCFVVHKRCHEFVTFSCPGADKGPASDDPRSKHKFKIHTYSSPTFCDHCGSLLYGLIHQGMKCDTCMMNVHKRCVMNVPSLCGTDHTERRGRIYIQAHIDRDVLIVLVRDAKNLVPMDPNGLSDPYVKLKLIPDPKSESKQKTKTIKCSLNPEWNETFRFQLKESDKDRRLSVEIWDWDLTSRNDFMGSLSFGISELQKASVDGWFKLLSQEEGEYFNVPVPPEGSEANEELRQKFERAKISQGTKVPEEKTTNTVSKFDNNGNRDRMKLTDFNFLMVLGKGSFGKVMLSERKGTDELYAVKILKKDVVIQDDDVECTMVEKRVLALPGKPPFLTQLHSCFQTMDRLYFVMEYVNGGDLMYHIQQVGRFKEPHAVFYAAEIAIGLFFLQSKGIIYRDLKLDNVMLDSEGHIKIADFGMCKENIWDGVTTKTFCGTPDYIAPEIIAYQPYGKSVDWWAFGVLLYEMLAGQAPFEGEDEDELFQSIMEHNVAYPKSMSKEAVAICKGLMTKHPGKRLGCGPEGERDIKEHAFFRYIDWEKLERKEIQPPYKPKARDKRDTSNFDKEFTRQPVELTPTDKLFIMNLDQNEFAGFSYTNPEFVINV
Chain of protein kinase C beta-2 (P05771 1-673 isoform P05771-2): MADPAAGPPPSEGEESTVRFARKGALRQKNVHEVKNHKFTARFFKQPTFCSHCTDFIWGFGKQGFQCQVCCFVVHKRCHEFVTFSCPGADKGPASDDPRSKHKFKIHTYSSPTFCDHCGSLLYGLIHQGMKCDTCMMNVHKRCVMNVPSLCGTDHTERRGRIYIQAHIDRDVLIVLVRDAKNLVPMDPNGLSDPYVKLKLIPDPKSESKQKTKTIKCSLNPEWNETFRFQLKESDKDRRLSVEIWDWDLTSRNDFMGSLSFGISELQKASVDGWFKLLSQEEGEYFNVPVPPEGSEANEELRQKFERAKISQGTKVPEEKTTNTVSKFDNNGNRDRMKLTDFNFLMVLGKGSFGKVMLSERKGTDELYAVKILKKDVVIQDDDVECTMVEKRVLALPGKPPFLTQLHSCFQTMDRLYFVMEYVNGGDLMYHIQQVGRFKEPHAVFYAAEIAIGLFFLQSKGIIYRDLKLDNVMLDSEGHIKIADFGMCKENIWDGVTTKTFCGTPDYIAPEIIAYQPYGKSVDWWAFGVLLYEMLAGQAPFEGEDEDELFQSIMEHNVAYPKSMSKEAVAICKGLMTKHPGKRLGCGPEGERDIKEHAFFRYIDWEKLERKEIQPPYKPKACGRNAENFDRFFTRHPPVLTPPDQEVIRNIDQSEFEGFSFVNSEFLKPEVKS
Chain of protein kinase C eta (P24723 whole entry): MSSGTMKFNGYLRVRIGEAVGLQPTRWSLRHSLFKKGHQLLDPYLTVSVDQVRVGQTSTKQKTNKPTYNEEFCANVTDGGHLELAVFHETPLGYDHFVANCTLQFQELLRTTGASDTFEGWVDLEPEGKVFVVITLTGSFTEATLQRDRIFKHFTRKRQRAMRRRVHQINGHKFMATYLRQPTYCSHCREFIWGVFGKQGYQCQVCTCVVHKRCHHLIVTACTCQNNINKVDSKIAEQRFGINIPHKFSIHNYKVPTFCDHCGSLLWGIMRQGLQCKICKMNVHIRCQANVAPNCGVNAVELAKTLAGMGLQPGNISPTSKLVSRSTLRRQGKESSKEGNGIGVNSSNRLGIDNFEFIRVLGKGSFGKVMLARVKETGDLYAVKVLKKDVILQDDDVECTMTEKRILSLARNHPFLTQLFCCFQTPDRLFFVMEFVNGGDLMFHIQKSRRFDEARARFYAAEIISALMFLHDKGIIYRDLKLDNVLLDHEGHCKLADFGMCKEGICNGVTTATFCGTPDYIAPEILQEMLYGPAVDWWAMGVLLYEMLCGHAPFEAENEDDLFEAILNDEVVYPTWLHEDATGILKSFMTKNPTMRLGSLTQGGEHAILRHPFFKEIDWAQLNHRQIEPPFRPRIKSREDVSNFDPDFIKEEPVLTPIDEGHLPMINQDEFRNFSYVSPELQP
Chain of protein kinase C delta (Q05655 whole entry): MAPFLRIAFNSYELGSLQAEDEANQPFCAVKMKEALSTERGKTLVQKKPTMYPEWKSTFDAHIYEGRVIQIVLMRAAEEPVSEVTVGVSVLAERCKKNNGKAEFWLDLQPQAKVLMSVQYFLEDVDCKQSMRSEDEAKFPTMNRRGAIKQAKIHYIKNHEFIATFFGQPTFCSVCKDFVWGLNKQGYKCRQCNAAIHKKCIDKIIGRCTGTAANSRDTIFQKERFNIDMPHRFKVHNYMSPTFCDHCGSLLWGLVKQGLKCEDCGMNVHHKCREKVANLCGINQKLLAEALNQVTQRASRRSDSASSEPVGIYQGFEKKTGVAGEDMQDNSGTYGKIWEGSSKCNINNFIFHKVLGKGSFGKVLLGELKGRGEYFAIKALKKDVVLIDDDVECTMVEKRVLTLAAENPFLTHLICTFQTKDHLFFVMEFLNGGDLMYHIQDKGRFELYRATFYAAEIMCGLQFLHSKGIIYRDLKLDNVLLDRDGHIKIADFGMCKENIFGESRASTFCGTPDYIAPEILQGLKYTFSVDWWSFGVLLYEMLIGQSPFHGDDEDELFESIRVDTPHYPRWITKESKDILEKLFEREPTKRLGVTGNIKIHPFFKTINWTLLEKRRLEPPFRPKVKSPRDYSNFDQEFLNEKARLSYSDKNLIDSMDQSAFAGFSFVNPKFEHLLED

| Compound | pIC50 [2, 9] | pIC50 [3, 10] | pIC50 [1, 11] | pIC50 [4, 12] | pIC50 [5, 13] | pIC50 [6, 14] | pIC50 [7, 15] | pIC50 [8, 16] | pIC50 [1] | pIC50 [2] | pIC50 [3] | pIC50 [4] | pIC50 [5] | pIC50 [6] | pIC50 [7] | pIC50 [8] |
| --- | --- | --- | --- | --- | --- | --- | --- | --- | --- | --- | --- | --- | --- | --- | --- | --- |
| Cn1cc(C2=C(c3cn(C4CCN(CC(F)(F)C(F)(F)C(F)(F)F)CC4)c4ccccc34)C(=O)NC2=O)c2ccccc21 [Example 46, 3-{1-[1-(2,2,3,3,4,4,4-Heptafluoro-butyl)-piperidin-4-yl]-indol-3-yl}-4-(1-methyl-indol-3-yl)-1H-pyrrole-2,5-dione] | – | – | – | – | – | – | – | – | < 4.00 | 6.34 | < 4.00 | < 4.00 | 5.52 | < 4.00 | < 4.00 | < 4.00 |
| Cn1cc(C2=C(c3cn(C4CCN(Cc5ccccc5)CC4)c4ccccc34)C(=O)NC2=O)c2ccccc21 [Example 47] | 7.30 | 6.30 | – | – | – | – | – | – | 5.52 | – | – | 5.40 | 7.00 | 5.70 | 4.28 | 6.00 |
| Cn1cc(C2=C(c3cn(C4CCN(c5ccccn5)CC4)c4ccccc34)C(=O)NC2=O)c2ccccc21 [Example 48] | 7.40 | 5.70 | 5.70 | 5.30 | 7.30 | 5.70 | < 4.00 | 5.70 | – | – | – | – | – | – | – | – |
| O=C1NC(=O)C(c2cn(C3CCNCC3)c3ccccc23)=C1c1c[nH]c2ccccc12 [Example 50] | 7.70 | 7.00 | 6.30 | 6.22 | 7.52 | 6.30 | 5.52 | 6.52 | – | – | – | – | – | – | – | – |
| CN1CCC(n2cc(C3=C(c4c[nH]c5ccccc45)C(=O)NC3=O)c3ccccc32)CC1 [Example 51] | 8.00 | 7.40 | 7.30 | 6.30 | 7.70 | 6.40 | 5.30 | 6.70 | – | – | – | – | – | – | – | – |
| Cn1cc(C2=C(c3cn(CCCCOC4CC(O)C(CN)O4)c4ccccc34)C(=O)NC2=O)c2ccccc21 (stereo not drawn) [Example 53] | 6.64 | 5.77 | 5.18 | 5.37 | 6.39 | 5.46 | 4.29 | 5.49 | – | – | – | – | – | – | – | – |
| Cn1cc(C2=C(c3cn(CCCCOC4CC(O)C(CN)O4)c4ccccc34)C(=O)NC2=O)c2ccccc21 (stereo not drawn) [Example 54] | 6.47 | 5.60 | 5.37 | 4.82 | 5.96 | 5.10 | 4.43 | 5.17 | – | – | – | – | – | – | – | – |
| CC(=O)NCC1OC(OCCCCn2cc(C3=C(c4cn(C)c5ccccc45)C(=O)NC3=O)c3ccccc32)CC1OC(C)=O (stereo not drawn) [Example 55] | 7.30 | 5.92 | 5.18 | 5.38 | 6.59 | 6.02 | 4.35 | 5.64 | – | – | – | – | – | – | – | – |
| Cn1cc(C2=C(c3cn(CCCCOC4C[C@H](O)[C@@H](CO)O4)c4ccccc34)C(=O)NC2=O)c2ccccc21 (stereo partly drawn) [Example 56] | 7.41 | 5.89 | 5.62 | 5.49 | 7.16 | 6.03 | 4.31 | 5.80 | – | – | – | – | – | – | – | – |
| Cn1cc(C2=C(c3cn(CCO[C@@H]4C[C@H](O)[C@@H](CN=[N+]=[N-])O4)c4ccccc34)C(=O)NC2=O)c2ccccc21 [Example 58] | 6.57 | 5.60 | 4.92 | 4.42 | 6.62 | 5.35 | 4.34 | 5.31 | – | – | – | – | – | – | – | – |

More lines, main results first:

| pIC50 [2, 9] | pIC50 [3, 10] | pIC50 [1, 11] | pIC50 [4, 12] | pIC50 [5, 13] | pIC50 [6, 14] | pIC50 [7, 15] | pIC50 [8, 16] | Compound | pIC50 [1] | pIC50 [2] | pIC50 [3] | pIC50 [4] | pIC50 [5] | pIC50 [6] | pIC50 [7] | pIC50 [8] |
| --- | --- | --- | --- | --- | --- | --- | --- | --- | --- | --- | --- | --- | --- | --- | --- | --- |
| 6.96 | 5.80 | 4.51 | 5.05 | 6.70 | 5.55 | 4.32 | 5.35 | Cn1cc(C2=C(c3cn(CCOC4O[C@H](CO)[C@@H](O)[C@@H](N=[N+]=[N-])[C@H]4O)c4ccccc34)C(=O)NC2=O)c2ccccc21 (stereo partly drawn) [Example 59] | – | – | – | – | – | – | – | – |
| 7.38 | 5.44 | 4.04 | 4.62 | 6.74 | 5.13 | 4.12 | 5.35 | Cn1cc(C2=C(c3cn(CCOC4O[C@H](CO)[C@@H](O)[C@@H](O)[C@H]4N=[N+]=[N-])c4ccccc34)C(=O)NC2=O)c2ccccc21 (stereo partly drawn) [Example 60] | – | – | – | – | – | – | – | – |
| 7.39 | 6.12 | 4.70 | 5.32 | 6.80 | 5.49 | 4.70 | 5.44 | Cn1cc(C2=C(c3cn(CCOC4C[C@H](N=[N+]=[N-])[C@@H](CO)O4)c4ccccc34)C(=O)NC2=O)c2ccccc21 (stereo partly drawn) [Example 61] | – | – | – | – | – | – | – | – |
| 7.00 | 5.59 | 4.38 | 5.28 | 6.70 | 5.41 | 4.39 | 5.36 | Cn1cc(C2=C(c3cn(CCOC4C[C@@H](N=[N+]=[N-])[C@@H](CO)O4)c4ccccc34)C(=O)NC2=O)c2ccccc21 (stereo partly drawn) [Example 62] | – | – | – | – | – | – | – | – |
| 7.31 | 6.85 | 5.44 | 5.40 | 6.89 | 5.80 | 4.30 | 5.77 | Cn1cc(C2=C(c3cn(CCOC4C[C@H](N)[C@@H](CO)O4)c4ccccc34)C(=O)NC2=O)c2ccccc21 (stereo partly drawn) [Example 63] | – | – | – | – | – | – | – | – |
| 8.30 | 7.40 | 6.10 | 6.55 | 8.30 | 6.80 | 4.30 | 6.80 | Cn1cc(C2=C(c3cn(C4CCOC4)c4ccccc34)C(=O)NC2=O)c2ccccc21 (stereo not drawn) [Example 64] | – | – | – | – | – | – | – | – |
| 6.70 | 5.59 | 4.42 | 5.09 | 6.52 | 5.39 | 4.33 | 5.18 | Cn1cc(C2=C(c3cn(CCOC4O[C@H](CO)[C@@H](O)[C@@H](N)[C@H]4O)c4ccccc34)C(=O)NC2=O)c2ccccc21 (stereo partly drawn) [Example 67] | – | – | – | – | – | – | – | – |
| 7.48 | 6.96 | 5.34 | 5.62 | 7.33 | 5.72 | 5.01 | 5.85 | CN1CCC(Cn2cc(C3=C(c4cn(C)c5ccccc45)C(=O)NC3=O)c3ccccc32)CC1 [Example 68, 3-(1-Methyl-indol-3-yl)-4-[1-(1-methyl-piperidin-4-ylmethylene)-indol-3-yl]-1H-pyrrole-2,5-dione] | – | – | – | – | – | – | – | – |
